Measurements from article PMC9870890 (Nature Communications, 2023).
Where “and” joins values, the source holds several entries; their conditions need not be identical. Equal entries are not always repeated.

Biological target: T1, M2RFL_WT (Homo sapiens, UniProt P08172)
T1 construct: made in house; host or cells: Sf9 membranes
T1 sequence (P08172 1-466): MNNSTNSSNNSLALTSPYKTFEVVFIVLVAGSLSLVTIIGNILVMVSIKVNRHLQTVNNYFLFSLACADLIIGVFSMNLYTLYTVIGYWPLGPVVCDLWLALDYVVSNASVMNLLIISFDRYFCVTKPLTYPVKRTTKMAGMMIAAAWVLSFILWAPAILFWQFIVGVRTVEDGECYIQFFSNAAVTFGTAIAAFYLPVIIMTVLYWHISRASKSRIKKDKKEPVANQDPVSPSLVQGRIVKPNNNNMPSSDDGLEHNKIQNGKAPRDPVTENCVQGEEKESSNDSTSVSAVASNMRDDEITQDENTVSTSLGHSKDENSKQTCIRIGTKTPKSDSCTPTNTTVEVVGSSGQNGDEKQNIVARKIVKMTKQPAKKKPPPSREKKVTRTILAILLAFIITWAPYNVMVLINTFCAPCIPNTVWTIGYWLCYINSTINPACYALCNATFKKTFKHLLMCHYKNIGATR
Assay: [3H]-NMS competition binding (ACh competition, GoA titration), wild type full length M2R
Set-up: unit not given here
Experimental: Purified M2R receptor was reconstituted into high-density lipoprotein (HDL) particles constituting apolipoprotein A1(APOA1) and mixture of POPG: POPC lipids with 3:2 (mol:mol)ratio as previously described. […] Membranes or HDL particles were separated from excess [^3H]-NMS by Whatman GF/B filters using a Brandel 48-well harvester. The bound radioligand were read on a liquid scintillation counter (MicroBeta Jet, PerkinElmer). Data were analyzed by GraphPad Prism 9.2.0. […]
Data are given as mean
± SEM from 3 independent experiments.
M2RFL△9M_K383M and M2RFL_WT.
SEM from 3 independent experiments. […]

CC(=O)OCC[N+](C)(C)C [ACh, acetylcholine]
ACh competition curve data, Supplementary Fig. 4c (log[M] (ACh) -3): 7.417 and 5.223 and 6.047 | ACh competition curve data, Supplementary Fig. 4c (log[M] (ACh) -4): 27.7888 and 31.3709 and 30.2311 | ACh competition curve data, Supplementary Fig. 4c (log[M] (ACh) -5): 61.0434 and 71.3013 and 69.7784 | ACh competition curve data, Supplementary Fig. 4c (log[M] (ACh) -6): 79.8736 and 96.1082 and 98.1674 | ACh competition curve data, Supplementary Fig. 4c (log[M] (ACh) -7): 94.365 and 99.8819 and 105.753 | ACh competition curve data, Supplementary Fig. 4c (log[M] (ACh) -8): 97.3725 and 89.5377 and 100.935
